Converted amounts (≈) assume the structure as drawn. Read-outs that look alike come from different tables or passages of the source.
Assays:
[1] = Microsomal stability assay, mouse liver microsomes (MLM); format: in vitro ADME; settings: 0.5 mg/mL protein, 1 μM substrate
Protocol: (§1) Microsomal Stability Assay
(§2) The stability studies were performed manually using the substrate depletion approach. Test compounds were incubated at 37° C. with cryo-preserved mouse or human liver microsomes (Corning) at a protein concentration of 0.5 mg·mL^−1 and a final substrate concentration of 1 μM. Aliquots were removed from the incubation at defined timepoints and the reaction was terminated by adding to ice-cold organic solvent. Compound concentrations were determined by LC-MS/MS analysis. The natural log of the percentage of compound remaining was plotted against each time point and the slope determined. The half-life (t1/2) and CLint were calculated using Equations 1 and 2, respectively.
(§3) HLM (human liver microsomes) and MLM (mouse liver microsomes) stability assay results are described in Tables 1-2.

[2] = Solubility (Sol), medium not stated; format: physicochemical; settings: cells not marked (FESSIF)
[3] = Plasma protein binding assay, human plasma (hPPB); format: in vitro ADME; settings: 5 μM, equilibrium dialysis 4 hours at 37° C.
Protocol: (§4) Plasma Protein Binding Assay The plasma protein binding was determined by the equilibrium dialysis method. A known concentration of compound (5 μM) in previously frozen human or mouse plasma (Sera Labs) was dialysed against phosphate buffer using a RED device (Life Technologies) for 4 hours at 37° C. The concentration of compound in the protein containing (PC) and protein free (PF) sides of the dialysis membrane were determined by LC-MS/MS and the % free compound was determined by equation 4. Data analysis was performed using Excel (Microsoft, USA). % free=(1−((PC−PF)/PC))×100 (4) hPPB (human plasma protein binding) and mPPB (mouse plasma protein binding) results are described in Tables 1-2.

[4] = Microsomal stability assay, human liver microsomes (HLM); format: in vitro ADME; settings: 0.5 mg/mL protein, 1 μM substrate, 37° C.
Protocol: as §1, §2, §3

FeSSIF solubility assay = format: physicochemical; settings: fed state simulated intestinal fluid (FeSSIF), thermodynamic from solid, pH 5 acetate buffer, 37° C., read-out: FESSIF Sol
Protocol: FeSSIF Solubility Assay 1 mL of fed state simulated intestinal fluid (FeSSIF), prepared using FaSSIF/FeSSIF/FaSSGF powder (Biorelevant.com) and pH 5 acetate buffer, was added to 1.0 mg of compound and then incubated for 24 h (Bioshake iQ, 650 rpm, 37° C.). Following filtration under positive pressure, the concentration of compound in solution was assessed by LC-UV in comparison to the response for a calibration standard of known concentration (250 μM). FeSSIF solubility results are described in Tables 1-2.

[5] = tested on: constitutive ERK phosphorylation in HCT-116 cells; assay: HCT-116 AlphaLISA SureFire pERK1/2 cellular assay; format: cell-based, human; settings: Homo sapiens, read-out: pERK HCT116 (2 hr) Abs pIC50 (converted)
Protocol: HCT-116 AlphaLISA SureFire pERK1/2 Cellular Assay […] […] Assay read outs took place 2 or 24 hours after dosing with compounds. On the first day, HCT-116 cells were harvested, resuspended in growth medium (McCoys5A with Glutamax (Life Technologies 36600021) and 10% heat-inactivated fetal bovine serum (Sigma F9665)), and counted. Cells were plated in 100 μl per well in each well of a 96-well culture dish (Sigma CLS3598) to a final density of 30,000 (2 hr read) or 15,000 (24 hr read) cells per well and incubated over night at 37° C. and 5% CO2. On day 2, the growth medium was exchanged for dosing medium (McCoys5A with Glutamax (Life Technologies 36600021) and 1% heat-inactivated fetal bovine serum (Sigma F9665)) and the cells were dosed with compounds to produce a 10-point dose response, where the top concentration was 1 μM and subsequent concentrations were at 1/3 log dilution intervals. A matched DMSO control was included. The cells were subsequently incubated for either 2 or 24 hours at 37° C. and 5% CO2. After incubation, media was removed and the cells were incubated with lysis buffer containing phosphatase inhibitors for 15 minutes at room temperature. Cell lysates were transferred to a 12 area 96 well white Optiplate™ (Perkin Elmer 6005569) and incubated with anti-mouse IgG acceptor beads, a biotinylated anti-ERK1/2 rabbit antibody recognizing both phosphorylated and non-phosphorylated ERK1/2, a mouse antibody targeted to the Thr202/Tyr204 epitope and recognizing phosphorylated ERK proteins only, and streptavidin-coated donor beads. The biotinylated antibody binds to the streptavidin-coated donor beads and the phopsho-ERK1/2 antibody binds to the acceptor beads. […] Both antibodies bound to phosphorylated ERK proteins, bringing the donor and acceptor beads into close proximity. All data were analyzed using the Dotmatics or GraphPad Prism software packages. Inhibition of ERK phosphorylation was assessed by determination of the absolute IC50 value, which is defined as the concentration of compound required to decrease the level of phosphorylated ERK proteins by 50% when compared to DMSO control.

[6] = Plasma protein binding assay, mouse plasma (mPPB); format: in vitro ADME; settings: 5 μM, equilibrium dialysis 4 hours at 37° C.
Protocol: as §4

[7] = HCT-116, HCT116 cells, 2 hr, Abs

Row | Compound | solubility thermodynamic at 24 h (FeSSIF solubility assay) [µg/mL] | IC50 [5, 7] [nM] | also measured
1 | O=C1CCc2c(Oc3ccc4c(c3)CC(c3cc(-c5ccc(Cl)cc5)n[nH]3)CO4)ccnc2N1 (centres unmarked) [Compound 39] |  |  | microsomal CLint at 1 μM [1]: 15.4 µL/min/mg; Sol [2]: <1.2 mg/L
2 | CC(C)c1cc(-c2c[nH]c(C3COc4ccc(Oc5ccnc6c5CCC(=O)N6)cc4C3)n2)ccn1 (centres unmarked) [Compound 120, 5-[3-[4-(2-isopropyl-4-pyridyl)-1H-imidazol-2-yl]chroman-6-yl]oxy-3,4-dihydro-1H-1,8-naphthyridin-2-one] | 1.3 (≈ 2.7 µM) | 955 | hPPB (% free) [3]: 0.9 % free; microsomal CLint at 1 μM ([1]; 37° C.): 89 µL/min/mg; microsomal CLint at 1 μM [4]: 190 µL/min/mg; mPPB (% free) [6]: 0.6 % free
3 | CC(=O)N1CCc2nc(C3COc4ccc(Oc5ccnc6c5CCC(=O)N6)cc4C3)[nH]c2C1 (centres unmarked) [Compound 135, 5-[3-(5-acetyl-3,4,6,7-tetrahydroimidazo[4,5-c]pyridin-2-yl)chroman-6-yl]oxy-3,4-dihydro-1H-1,8-naphthyridin-2-one] | 33.2 (≈ 72.3 µM) |  | IC50 ([5]; HCT-116, 2 h): > 1000 nM
4 | CC(C(=O)Nc1cc(Oc2ccc3c(c2)CC(c2nc(-c4ccccc4)c[nH]2)CO3)ccn1)N1CCOCC1 (centres unmarked) [Compound 150, 2-morpholino-N-[4-[3-(4-phenyl-1H-imidazol-2-yl)chroman-6-yl]oxy-2-pyridyl]propanamide] | 235 (≈ 448 µM) |  | IC50 ([5]; HCT-116, 2 h): > 1000 nM
5 | COc1ccc(-c2cc(C3COc4ccc(Oc5ccnc6c5CCC(=O)N6)cc4C3)[nH]n2)cc1 (centres unmarked) [Compound 43] |  |  | microsomal CLint at 1 μM [1]: 23.2 µL/min/mg; Sol [2]: <1.2 mg/L
6 | Cc1nn(C)cc1-c1c[nH]c(C2COc3ccc(Oc4ccnc5c4CCC(=O)N5)cc3C2)n1 (centres unmarked) [Compound 109, 5-[3-[4-(1,3-dimethylpyrazol-4-yl)-1H-imidazol-2-yl]chroman-6-yl]oxy-3,4-dihydro-1H-1,8-naphthyridin-2-one] | < 1.1 | > 1000 | 
7 | CC(C)(C)c1cc(-c2c[nH]c(C3COc4ccc(Oc5ccnc6c5CCC(=O)N6)cc4C3)n2)ccn1 (centres unmarked) [Compound 121, 5-[3-[4-(2-tert-butyl-4-pyridyl)-1H-imidazol-2-yl]chroman-6-yl]oxy-3,4-dihydro-1H-1,8-naphthyridin-2-one] | 38.2 (≈ 77.1 µM) | > 1000 | hPPB (% free) [3]: 0.4 % free; microsomal CLint at 1 μM ([1]; 37° C.): 137 µL/min/mg; microsomal CLint at 1 μM [4]: 207 µL/min/mg; mPPB (% free) [6]: 0.4 % free
8 | O=C1CCc2c(Oc3ccc4c(c3)CC(c3nc(-c5ccnc(C6CC6)c5)c[nH]3)CO4)ccnc2N1 (centres unmarked) [Compound 119, 5-[3-[4-(2-cyclopropyl-4-pyridyl)-1H-imidazol-2-yl]chroman-6-yl]oxy-3,4-dihydro-1H-1,8-naphthyridin-2-one] | < 1.2 | 724 | hPPB (% free) [3]: 0.6 % free; microsomal CLint at 1 μM ([1]; 37° C.): 35.8 µL/min/mg; microsomal CLint at 1 μM [4]: 74.2 µL/min/mg; mPPB (% free) [6]: 0.9 % free

Continued, in another order:

Row | solubility thermodynamic at 24 h (FeSSIF solubility assay) [µg/mL] | IC50 [5, 7] [nM] | Compound | also measured
9 | 661 (≈ 1440 µM) | > 1000 | CC(C)N1CCc2nc(C3COc4ccc(Oc5ccnc6c5CCC(=O)N6)cc4C3)[nH]c2C1 (centres unmarked) [Compound 133, 5-[3-(5-isopropyl-3,4,6,7-tetrahydroimidazo[4,5-c]pyridin-2-yl)chroman-6-yl]oxy-3,4-dihydro-1H-1,8-naphthyridin-2-one] | 
10 | 16.7 (≈ 33.9 µM) | > 1000 | Cn1cnc2cc(-c3c[nH]c(C4COc5ccc(Oc6ccnc7c6CCC(=O)N7)cc5C4)n3)ccc21 (centres unmarked) [Compound 129, 5-[3-[4-(1-methylbenzimidazol-5-yl)-1H-imidazol-2-yl]chroman-6-yl]oxy-3,4-dihydro-1H-1,8-naphthyridin-2-one] | 
11 | < 1.3 | > 1000 | Cc1cc(-c2ccc3[nH]c(N4CCc5ccc(Oc6ccnc7c6CCC(=O)N7)cc5C4)nc3c2)n(C)n1 [Compound 163] | 
12 | < 1 | > 1000 | O=C1CCc2c(Oc3ccc4c(c3)CN(c3nc5ccccc5[nH]3)CC4)ccnc2N1 [Compound 159, 5-[[2-(1H-benzimidazol-2-yl)-3,4-dihydro-1H-isoquinolin-7-yl]oxy]-3,4-dihydro-1H-1,8-naphthyridin-2-one] | hPPB (% free) [3]: 1.0 % free; microsomal CLint at 1 μM ([1]; 37° C.): 34.4 µL/min/mg; microsomal CLint at 1 μM [4]: 19.8 µL/min/mg; mPPB (% free) [6]: 0.5 % free
13 | 13.7 (≈ 28.1 µM) | > 1000 | O=C1CCc2c(Oc3ccc4c(c3)CN(c3nc5cc(-c6ccccc6)ccc5[nH]3)CC4)ccnc2N1 [Compound 162, 5-[[2-(5-phenyl-1H-benzimidazol-2-yl)-3,4-dihydro-1H-isoquinolin-7-yl]oxy]-3,4-dihydro-1H-1,8-naphthyridin-2-one] | 
14 | < 1.1 | 562 | CCCc1ccc2[nH]c(N3CCc4ccc(Oc5ccnc6c5CCC(=O)N6)cc4C3)nc2c1 [Compound 161, 5-[[2-(5-propyl-1H-benzimidazol-2-yl)-3,4-dihydro-1H-isoquinolin-7-yl]oxy]-3,4-dihydro-1H-1,8-naphthyridin-2-one] | 

Reference: patent US12304912B2, “Fused bicyclic RAF inhibitors and methods for use thereof” (Jazz Pharmaceuticals Ireland Limited, priority 2020, dated 2025)
